Test results reported in patent US20260125375A1 (Pfizer Inc., priority 2022, published 2026).

Legend:
WT CBL-B (36-427) = target: T1, WT CBL-B (36-427) (Homo sapiens, UniProt Q13191); experiment: Surface Plasmon Resonance (SPR) assay, binding affinity and kinetics, CBL-B; conditions: SPR at 10° C., biotinylated WT CBL-B (36-427) on streptavidin chip; geometric mean; read-out: CBL-B SPR Kd (nM) GMean
T1 construct: N-terminal biotinylated WT CBL-B (36-427) and C-CBL (46-435) were captured on a streptavidin (SA) coated sensor chip
Method: (§1) Surface Plasmon Resonance (SPR) Assay
(§2) The purpose of the SPR assay is to evaluate the binding affinity and kinetics of the compound of disclosure binding to CBL-B and C-CBL.
(§3) The binding affinity and kinetics of compound binding to CBL-B and C-CBL were measured by Surface Plasmon Resonance (SPR) using either Biacore S200, 8K or 8K+ (Cytiva, Marlborough, MA) instruments. N-terminal biotinylated WT CBL-B (36-427) and C-CBL (46-435) were captured on a streptavidin (SA) coated sensor chip to achieve approximately 5000 to 6000 RUs of surface density. Un-functionalized SA surfaces with no immobilized protein served as reference for binding kinetic analysis. All the samples were prepared in buffer consisting of 10 mM HEPES, 150 mM NaCl, 0.05% Tween-20, 5% glycerol, […], 2% DMSO, pH 7.2. The same buffer was used as the running buffer during the experiments. Compound binding kinetics were measured in either multi-cycle or single-cycle kinetic format.
(§4) Multi-cycle kinetic analysis (MCK): A two-fold, 10-point serial dilution of test compounds was set-up in a 96-well microplate (Greiner; Cat #650101) with a top concentration of either 10 μM or 100 μM. Binding kinetics was measured at 10° C. by injecting serial dilution of compounds onto both reference and CBL immobilized channels at a flow rate of 100 μL/min and association time of 90 seconds. Compound dissociation was monitored for >400 seconds during each cycle. No additional regeneration was used. DMSO calibration curve was obtained before and after compound analysis by injecting 0-4% of DMSO in assay buffer. A suitable compound with known affinity and kinetics was tested once in every experiment as a positive control to assess activity of the captured proteins on the surface.
(§5) Single-cycle kinetic analysis (SCK): A 3-fold, 6-point serial dilution of compounds was set-up in a deep 96-well microplate (Greiner Bio; Cat #780201) with the highest concentration of 1 μM (concentration range: […]). Binding kinetics was measured at 10° C. by injecting serial dilutions of compounds in increasing order onto reference as well as CBL immobilized channels at a flow rate of 100 μL/min and association time of 120 seconds. Compound dissociation was monitored for >5400 seconds. Two buffer blanks were also run in a single-cycle kinetics format before the compound run for double referencing. No additional regeneration was used. DMSO calibration curve was obtained before and after compound analysis by injecting 0-4% of DMSO in the assay buffer. A suitable compound with known affinity and kinetics was tested once in every experiment as a positive control to assess activity of the captured proteins on the surface.

CBL-B (residues 36-427) = target: T2, CBL-B (residues 36-427) (Homo sapiens, UniProt Q13191); experiment: Ligand Displacement Assay (LDA), HTRF competitive binding against BODIPY-labeled fluorescent tracer, CBL-B; conditions: geometric mean of the number of tests, read-out: CBL-B Ki (nM) GMean
T2 construct: Purified CBL-B (residues 36-427) and C-CBL (residues 46-435) proteins from baculovirus-infected insect cells; made in house; host or cells: baculovirus-infected insect cells
How it was run: (§6)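 Ki values, given as geometric means of repeated tests, come from TR-FRET displacement of a BODIPY-labelled tracer from terbium-streptavidin-bound, AviTag-biotinylated protein made in baculovirus-infected insect cells. Compounds ran as three-fold dilutions in duplicate, […], 2% DMSO.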

C-CBL (46-435) = target: T3, C-CBL (46-435) (Homo sapiens, UniProt P22681); experiment: Surface Plasmon Resonance (SPR) assay, binding affinity and kinetics, C-CBL; conditions: SPR at 10° C., biotinylated C-CBL (46-435) on streptavidin chip; geometric mean; read-out: C-CBL SPR Kd (nM) GMean
T3 construct: N-terminal biotinylated WT CBL-B (36-427) and C-CBL (46-435) were captured on a streptavidin (SA) coated sensor chip
T3 sequence (P22681 46-435): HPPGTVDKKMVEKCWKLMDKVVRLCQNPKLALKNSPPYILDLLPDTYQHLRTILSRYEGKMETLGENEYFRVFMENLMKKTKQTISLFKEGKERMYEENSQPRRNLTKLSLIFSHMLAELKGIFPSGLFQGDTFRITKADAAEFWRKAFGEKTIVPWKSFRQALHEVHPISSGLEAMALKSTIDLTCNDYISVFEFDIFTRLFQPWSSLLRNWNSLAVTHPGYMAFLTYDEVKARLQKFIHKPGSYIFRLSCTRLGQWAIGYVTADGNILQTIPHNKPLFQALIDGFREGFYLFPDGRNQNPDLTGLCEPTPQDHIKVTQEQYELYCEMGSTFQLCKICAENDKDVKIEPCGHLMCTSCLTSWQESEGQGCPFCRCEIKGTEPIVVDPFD
Method: as §1, §2, §3, §4, §5

C-CBL (residues 46-435) = target: T4, C-CBL (residues 46-435) (Homo sapiens, UniProt P22681); experiment: Ligand Displacement Assay (LDA), HTRF competitive binding against BODIPY-labeled fluorescent tracer, C-CBL; conditions: geometric mean of the number of tests, read-out: C-CBL Ki (nM) GMean
T4 construct: Purified CBL-B (residues 36-427) and C-CBL (residues 46-435) proteins from baculovirus-infected insect cells; made in house; host or cells: baculovirus-infected insect cells
T4 sequence (P22681 46-435): T3 sequence (P22681 46-435)
How it was run: as §6

Cn1cnnc1[C@@H](c1cccc(-c2n[nH]c3c(CN[C@@H]4CCC[C@H]4O)nc(C(F)(F)F)cc23)c1)C1CCC1 [Example C121, (1R,2R)-2-({[3-{3-[(R)-cyclobutyl(4-methyl-4H-1,2,4-triazol-3-yl)methyl]phenyl}-5-(trifluoromethyl)-1H-pyrazolo[3,4-c]pyridin-7-yl]methyl}amino)cyclopentan-1-ol]
Kd (WT CBL-B (36-427)): 3.3 nM
Ki (CBL-B (residues 36-427)): 18.9 nM
Kd (C-CBL (46-435)): 113 nM
Ki (C-CBL (residues 46-435)): 111 nM

Cn1cnnc1[C@@H](c1cccc(-c2n[nH]c3c(CNC4CCOCC4)nc(C(F)(F)F)cc23)c1)C1CCC1 [Example D85]
Kd (WT CBL-B (36-427)): 6.9 nM
Ki (CBL-B (residues 36-427)): 23.4 nM
Kd (C-CBL (46-435)): 241 nM
Ki (C-CBL (residues 46-435)): 237 nM

C[C@@H](c1nc(C(F)(F)F)cc2c(-c3cccc(C4(Cc5nncn5C)COC4)c3)n[nH]c12)N1CCNCC1 (single isomer, unassigned) [Example D53]
Kd (WT CBL-B (36-427)): 3.2 nM
Ki (CBL-B (residues 36-427)): 11.8 nM
Kd (C-CBL (46-435)): 36.1 nM
Ki (C-CBL (residues 46-435)): 36.9 nM

Cn1cnnc1[C@@H](c1cccc(-c2n[nH]c3c(CN[C@@H]4CCOC4)nc(C(F)(F)F)cc23)c1)C1CCC1 [Example C104, (3R)-N-{[3-{3-[(R)-cyclobutyl(4-methyl-4H-1,2,4-triazol-3-yl)methyl]phenyl}-5-(trifluoromethyl)-1H-pyrazolo[3,4-c]pyridin-7-yl]methyl}oxolan-3-amine]
Kd (WT CBL-B (36-427)): 8.2 nM
Ki (CBL-B (residues 36-427)): 28 nM
Kd (C-CBL (46-435)): 328 nM
Ki (C-CBL (residues 46-435)): 218 nM

Cn1cnnc1CC1(c2cccc(-c3n[nH]c4c(CNC5CCCC5)nc(C(F)(F)F)cc34)c2)COC1 [Example C54, N-{[3-(3-{3-[(4-methyl-4H-1,2,4-triazol-3-yl)methyl]oxetan-3-yl}phenyl)-5-(trifluoromethyl)-1H-pyrazolo[3,4-c]pyridin-7-yl]methyl}cyclopentanamine]
Kd (WT CBL-B (36-427)): 4.5 nM
Ki (CBL-B (residues 36-427)): 10.7 nM
Kd (C-CBL (46-435)): 93.2 nM
Ki (C-CBL (residues 46-435)): 49.4 nM

CCNC(C)c1nc(C(F)(F)F)cc2c(-c3cccc(C4(Cc5nncn5C)COC4)c3)n[nH]c12 (single isomer, unassigned) [Example C84, (1ξ)-N-ethyl-1-[3-(3-{3-[(4-methyl-4H-1,2,4-triazol-3-yl)methyl]oxetan-3-yl}phenyl)-5-(trifluoromethyl)-1H-pyrazolo[3,4-c]pyridin-7-yl]ethan-1-amine]
Kd (WT CBL-B (36-427)): 5.8 nM
Ki (CBL-B (residues 36-427)): 25.1 nM
Kd (C-CBL (46-435)): 99 nM
Ki (C-CBL (residues 46-435)): 144 nM

Cn1cnnc1CC1(c2cccc(-c3n[nH]c4c(OCCN)nc(C(F)(F)F)cc34)c2)COC1 [Example J3, 2-{[3-(3-{3-[(4-methyl-4H-1,2,4-triazol-3-yl)methyl]oxetan-3-yl}phenyl)-5-(trifluoromethyl)-1H-pyrazolo[3,4-c]pyridin-7-yl]oxy}ethan-1-amine]
Kd (WT CBL-B (36-427)): 3.2 nM
Ki (CBL-B (residues 36-427)): 16.7 nM
Kd (C-CBL (46-435)): 53.6 nM
Ki (C-CBL (residues 46-435)): 76.3 nM

Cn1cnnc1CC1(c2cccc(-c3n[nH]c4c(CN5CC[C@H](F)C5)nc(C(F)(F)F)cc34)c2)COC1 [Example C73, 7-{[(3S)-3-fluoropyrrolidin-1-yl]methyl}-3-(3-{3-[(4-methyl-4H-1,2,4-triazol-3-yl)methyl]oxetan-3-yl}phenyl)-5-(trifluoromethyl)-1H-pyrazolo[3,4-c]pyridine]
Kd (WT CBL-B (36-427)): 9 nM
Ki (CBL-B (residues 36-427)): 19.3 nM
Kd (C-CBL (46-435)): 94 nM
Ki (C-CBL (residues 46-435)): 111 nM

C[C@@H](c1nc(C(F)(F)F)cc2c(-c3cccc(C4(Cc5nncn5C)COC4)c3)n[nH]c12)N1CCCC1 (single isomer, unassigned) [Example D47]
Kd (WT CBL-B (36-427)): 16.3 nM
Ki (CBL-B (residues 36-427)): 36.9 nM
Kd (C-CBL (46-435)): 193 nM
Ki (C-CBL (residues 46-435)): 162 nM

CC(CN)c1nc(C(F)(F)F)cc2c(-c3cccc(C4(Cc5nncn5C)COC4)c3)n[nH]c12 (single isomer, unassigned) [Example K7, (2ξ)-2-[3-(3-{3-[(4-methyl-4H-1,2,4-triazol-3-yl)methyl]oxetan-3-yl}phenyl)-5-(trifluoromethyl)-1H-pyrazolo[3,4-c]pyridin-7-yl]propan-1-amine]
Kd (WT CBL-B (36-427)): 8 nM
Ki (CBL-B (residues 36-427)): 26.6 nM
Kd (C-CBL (46-435)): 94.9 nM
Ki (C-CBL (residues 46-435)): 97.8 nM

Cn1cnnc1[C@@H](c1cccc(-c2n[nH]c3c(CN[C@H]4C[C@H](O)C4)nc(C(F)(F)F)cc23)c1)C1CCC1 [Example C119, (1r,3r)-3-({[3-{3-[(R)-cyclobutyl(4-methyl-4H-1,2,4-triazol-3-yl)methyl]phenyl}-5-(trifluoromethyl)-1H-pyrazolo[3,4-c]pyridin-7-yl]methyl}amino)cyclobutan-1-ol]
Kd (WT CBL-B (36-427)): 21.9 nM
Ki (CBL-B (residues 36-427)): 28.7 nM
Kd (C-CBL (46-435)): 254 nM
Ki (C-CBL (residues 46-435)): 220 nM

COc1nc(C(F)(F)F)cc2c(-c3cccc(C4(Cc5nncn5C)COC4)c3)n[nH]c12 [Example J10, 7-methoxy-3-(3-{3-[(4-methyl-4H-1,2,4-triazol-3-yl)methyl]oxetan-3-yl}phenyl)-5-(trifluoromethyl)-1H-pyrazolo[3,4-c]pyridine]
Kd (WT CBL-B (36-427)): 21.4 nM
Ki (CBL-B (residues 36-427)): 25.1 nM
Kd (C-CBL (46-435)): 178 nM
Ki (C-CBL (residues 46-435)): 91.9 nM

C[C@@H](c1nc(C(F)(F)F)cc2c(-c3cccc(C4(Cc5nncn5C)COC4)c3)n[nH]c12)N1CC[C@H](F)C1 (single isomer, unassigned) [Example D98]
Kd (WT CBL-B (36-427)): 46 nM
Ki (CBL-B (residues 36-427)): 25.5 nM
Kd (C-CBL (46-435)): 217 nM
Ki (C-CBL (residues 46-435)): 110 nM

Cn1cnnc1[C@@H](c1cccc(-c2n[nH]c3c(CN4CCC4)nc(C(F)(F)F)cc23)c1)C1CCC1 [Example D83]
Kd (WT CBL-B (36-427)): 7.6 nM
Ki (CBL-B (residues 36-427)): 27.7 nM
Kd (C-CBL (46-435)): 177 nM
Ki (C-CBL (residues 46-435)): 198 nM

Cn1cnnc1CC1(c2cccc(-c3n[nH]c4ccc(Cl)cc34)c2)COC1 [Example B7, 5-chloro-3-(3-{3-[(4-methyl-4H-1,2,4-triazol-3-yl)methyl]oxetan-3-yl}phenyl)-1H-indazole]
Kd (WT CBL-B (36-427)): 7.2 nM
Ki (CBL-B (residues 36-427)): 25.1 nM
Kd (C-CBL (46-435)): 108 nM
Ki (C-CBL (residues 46-435)): 150 nM

Cn1cnnc1CC1(c2cccc(-c3n[nH]c4c(CNC5CCC5)nc(C(F)(F)F)cc34)c2)COC1 [Example C57, N-{[3-(3-{3-[(4-methyl-4H-1,2,4-triazol-3-yl)methyl]oxetan-3-yl}phenyl)-5-(trifluoromethyl)-1H-pyrazolo[3,4-c]pyridin-7-yl]methyl}cyclobutanamine]
Kd (WT CBL-B (36-427)): 3.3 nM
Ki (CBL-B (residues 36-427)): 18.9 nM
Kd (C-CBL (46-435)): 116 nM
Ki (C-CBL (residues 46-435)): 96.3 nM
